This is an account of results in patent US9187411B2, “Leukotriene B4 antagonist compound” (Eli Lilly and Company, priority 2012, dated 2015).

Read-outs that look alike come from different tables or passages of the source.

Experiment [1] has as its system LTB4-induced CD11b expression in neutrophils. As to the kind of experiment: CD11b assay, human whole blood. In kind it is cell-based. Particulars: Neutrophil, 10 nM LTB4. On the procedure:
EDTA anti-coagulated blood is collected from human donors or mice as before. For in vitro experiments, 8 or 10 point dose response curves of test compounds are assayed at final concentrations of 78 nM-10 μM or 20 nM-10 μM respectively. ½ serial dilutions of compound at 1000× of final assayed concentration are prepared in DMSO. Compound is then diluted to 10× in DPBS (DMSO concentration is now 1%). 10 μL of compound dilutions (at 10× in DPBS) or 1% DMSO in DPBS are added to wells of a 96 deep well plate. 90 μL whole blood is added and incubated 20 min at room temperature. 11 μL of 10×LTB4 (final concentration 25 nM for mouse or 10 nM human) is added and incubated at 37° C. for 30 min. The reaction is stopped by incubating the plate on ice for 5 min. The cells are stained with 10 μL anti-mouse or anti-human CD11b-PE (BD Biosciences diluted 1:20 for mouse and undiluted for human) and incubated on ice for 30 min in the dark (for mouse experiments, 10 μL anti-mouse LY6G-FITC antibody (BD Pharmingen) diluted 1:25 is added for the final 10 min) Red blood cells (RBCs) are lysed by adding 1.5 mL of 1×BD FACSlyse (BD Biosciences) and incubating for 10 min at room temperature in the dark. […] Data are analyzed with WinList software (Verity Software House) to determine mean and median fluorescent intensity values for CD11b-PE from neutrophil population.

The target of experiment [2] is T1, hBLT2 (Homo sapiens, UniProt Q9NPC1).
T1 construct: expressed in transfected cells; membrane preparation
T1 sequence (Q9NPC1 1-358): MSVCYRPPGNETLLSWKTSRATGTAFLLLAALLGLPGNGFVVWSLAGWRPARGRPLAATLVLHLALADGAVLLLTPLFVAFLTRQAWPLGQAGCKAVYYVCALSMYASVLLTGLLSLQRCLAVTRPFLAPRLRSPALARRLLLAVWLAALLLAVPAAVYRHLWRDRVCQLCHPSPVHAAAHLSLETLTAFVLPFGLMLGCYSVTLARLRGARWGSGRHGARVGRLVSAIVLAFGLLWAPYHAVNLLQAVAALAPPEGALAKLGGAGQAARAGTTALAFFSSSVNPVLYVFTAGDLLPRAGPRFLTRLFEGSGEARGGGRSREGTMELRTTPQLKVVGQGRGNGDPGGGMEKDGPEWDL
Put plainly: [3H]-LTB4 binding assay in hBLT2 containing membranes. As to conditions: [3H]-LTB4 displacement, hBLT2/CHO-K1 membranes. On the procedure:
[^3H]-LTB4 and known BLT1 and BLT2 antagonists are used to generate LTB4 displacement curves and IC50 values for compounds of the present invention. Receptor inhibition by compounds of the present invention is determined relative to BLT1 inhibitor and BLT2 inhibitor reference molecules to obtain percent efficacies.
hBLT2 Test Compound Preparations: For hBLT2 assays, test compounds are prepared in DMSO to make up a 10 mM stock solution. The stock solution is initially diluted 1:10 in Buffer A (50 mM HEPES pH 7.4, 10 mM MgCl2, 10 mM NaCl, 10% glycerol (v/v), 1% BSA (w/v)), followed by 3× serial dilutions in Buffer B (50 mM HEPES pH 7.4, 10 mM MgCl2, 10 mM NaCl, 10% glycerol (v/v), 1% BSA (w/v), 10% DMSO (v/v)) creating a ten-point dilution curve. Final compound concentrations ranging from 300 μM to 15.2 nM are plated in a 96-well round-bottom plate for conducting the in vitro assays. […]
[^3H]-LTB4 (30 μL of 2.8 nM, PerkinElmer NET-852) is aliquoted into each well of a Falcon® 3072 microtiter plate (BD Biosciences). […] The plate is allowed to sit for 16 h and then read on a Packard Instrument Company Topcount® for 1 min. […]

Consider `CCCc1c(NC(=O)CC(C)(C)C(=O)[O-])cccc1OCCCOc1cc(O)c(-c2ccc(F)cc2)cc1CC.[Na+]` [Example 2, Sodium 4-[[3-[3-[2-ethyl-4-(4-fluorophenyl)-5-hydroxy-phenoxy]propoxy]-2-propyl-phenyl]amino]-2,2-dimethyl-4-oxo-butanoate], for which the IC50 was 0.193 µM in experiment [1], 16.5 µM in experiment [2] (read-out: absolute IC50) and 15.4 µM in experiment [2] (read-out: relative IC50).
